Test system: NMNAT2
Assay: NMNAT2-Hibit nano-luciferase activity in stably transfected U87MG cells, various concentrations, 24 hours
Type: cell-based
Settings: U87MG cells stably transfected with NMNAT2-Hibit luc plasmid
Protocol: Selected compounds were tested in vitro. U87MG cells were stably transfected with NMNAT2-Hibit luc plasmid. Cells were treated with a test compound at various concentrations for 24 hours. Cells were then collected and assayed for nano-luciferase activity.

SMILES	E: compound efficacy for NMNAT2 activation (concentration giving >25% increase in NMNAT2 luciferase activity)
Cc1cccc(CN2CCc3cn(Cc4cccc(F)c4)c4cccc(c34)C2=O)c1 [BC20276]	+ (“+” >25% increase in NMNAT2 luciferase activity at >25 μM.)
O=C1c2cccc3c2c(cn3Cc2cccc(F)c2)CCN1Cc1ccncc1 [BC20277]	+ (“+” >25% increase in NMNAT2 luciferase activity at >25 μM.)
COc1ccc(CCN2CCc3cn(Cc4cccc(F)c4)c4cccc(c34)C2=O)cc1 [BC20278]	+ (“+” >25% increase in NMNAT2 luciferase activity at >25 μM.)
Cc1ccc(CNC(=O)C2CCc3c(c4ccccc4n3Cc3ccncc3)C2)o1 (stereo not drawn) [BC20279]	+ (“+” >25% increase in NMNAT2 luciferase activity at >25 μM.)
Cc1ccccc1CNC(=O)C1CCc2c(c3ccccc3n2Cc2ccncc2)C1 (stereo not drawn) [BC20280]	+ (“+” >25% increase in NMNAT2 luciferase activity at >25 μM.)
Cc1cccc(CNC(=O)C2CCc3c(c4ccccc4n3Cc3ccncc3)C2)c1 (stereo not drawn) [BC20281]	+ (“+” >25% increase in NMNAT2 luciferase activity at >25 μM.)
COc1ccccc1CNC(=O)C1CCc2c(c3ccccc3n2Cc2ccncc2)C1 (stereo not drawn) [BC20282]	+ (“+” >25% increase in NMNAT2 luciferase activity at >25 μM.)
COc1cccc(CNC(=O)C2CCc3c(c4ccccc4n3Cc3ccncc3)C2)c1 (stereo not drawn) [BC20283]	+ (“+” >25% increase in NMNAT2 luciferase activity at >25 μM.)
O=C(NCCc1ccccc1)C1CCc2c(c3ccccc3n2Cc2ccncc2)C1 (stereo not drawn) [BC20284]	+ (“+” >25% increase in NMNAT2 luciferase activity at >25 μM.)
Cc1ccc(CNC(=O)Cn2c3c(c4ccccc42)CC(C(=O)NCc2ccco2)CC3)o1 (stereo not drawn) [BC20285]	++ (“++” >25% increase in NMNAT2 luciferase activity at >1 μM ≤25 μM.)
O=C(Cn1c2c(c3ccccc31)CC(C(=O)NCc1ccco1)CC2)NCc1cccc(F)c1 (stereo not drawn) [BC20286]	++ (“++” >25% increase in NMNAT2 luciferase activity at >1 μM ≤25 μM.)
Cc1ccccc1CNC(=O)Cn1c2c(c3ccccc31)CC(C(=O)NCc1ccco1)CC2 (stereo not drawn) [BC20287]	++ (“++” >25% increase in NMNAT2 luciferase activity at >1 μM ≤25 μM.)
Cc1cccc(CNC(=O)Cn2c3c(c4ccccc42)CC(C(=O)NCc2ccco2)CC3)c1 (stereo not drawn) [BC20288]	++ (“++” >25% increase in NMNAT2 luciferase activity at >1 μM ≤25 μM.)
COc1ccccc1CNC(=O)Cn1c2c(c3ccccc31)CC(C(=O)NCc1ccco1)CC2 (stereo not drawn) [BC20289]	+ (“+” >25% increase in NMNAT2 luciferase activity at >25 μM.)
COc1cccc(CNC(=O)Cn2c3c(c4ccccc42)CC(C(=O)NCc2ccco2)CC3)c1 (stereo not drawn) [BC20290]	+ (“+” >25% increase in NMNAT2 luciferase activity at >25 μM.)
O=C(Cn1c2c(c3ccccc31)CC(C(=O)NCc1ccco1)CC2)NCCc1ccccc1 (stereo not drawn) [BC20291]	++ (“++” >25% increase in NMNAT2 luciferase activity at >1 μM ≤25 μM.)
O=C(Cn1c2c(c3ccccc31)CC(C(=O)NCc1ccco1)CC2)NCc1cccnc1 (stereo not drawn) [BC20292]	++ (“++” >25% increase in NMNAT2 luciferase activity at >1 μM ≤25 μM.)
COc1ccc(CN2CC(C(=O)c3cn(Cc4ccccc4F)c4ccccc34)CC2=O)c(OC)c1 (stereo not drawn) [BC20304]	+ (“+” >25% increase in NMNAT2 luciferase activity at >25 μM.)
COC(=O)c1ccc2c(c1)c(C)c(C)n2Cc1ccccc1C [BC20305]	+ (“+” >25% increase in NMNAT2 luciferase activity at >25 μM.)
Cc1ccccc1Cn1c(C)c(C)c2cc(C(=O)O)ccc21 [BC20306]	+ (“+” >25% increase in NMNAT2 luciferase activity at >25 μM.)
Cc1c(C)n(Cc2ccccc2)c2ccc(C(=O)N3CCc4occc4C3)cc12 [BC20307]	+ (“+” >25% increase in NMNAT2 luciferase activity at >25 μM.)
O=C(NCc1ccco1)N1CCc2c(c3ccccc3n2Cc2cccc(F)c2)C1 [BC20308]	++ (“++” >25% increase in NMNAT2 luciferase activity at >1 μM ≤25 μM.)
O=C(NCc1cccc(F)c1)N1CCc2c(c3ccccc3n2Cc2cccc(F)c2)C1 [BC20309]	+ (“+” >25% increase in NMNAT2 luciferase activity at >25 μM.)
COc1cccc(CNC(=O)N2CCc3c(c4ccccc4n3Cc3cccc(F)c3)C2)c1 [BC20310]	+ (“+” >25% increase in NMNAT2 luciferase activity at >25 μM.)

SMILES	E: compound efficacy for NMNAT2 activation (concentration giving >25% increase in NMNAT2 luciferase activity)
O=C(NCCc1ccccc1)N1CCc2c(c3ccccc3n2Cc2cccc(F)c2)C1 [BC20311]	+ (“+” >25% increase in NMNAT2 luciferase activity at >25 μM.)
Cc1cccc(NC(=O)N2CCc3c(c4ccccc4n3Cc3cccc(F)c3)C2)c1C [BC20312]	+ (“+” >25% increase in NMNAT2 luciferase activity at >25 μM.)
Cc1ccc(C)c(Cn2cc3c4c(cccc42)C(=O)NCC3)c1 [BC20313]	+ (“+” >25% increase in NMNAT2 luciferase activity at >25 μM.)
Cc1ccccc1CCN1CCc2cn(Cc3cccc(F)c3)c3cccc(c23)C1=O [BC20314]	+ (“+” >25% increase in NMNAT2 luciferase activity at >25 μM.)
O=C1NCCc2cn(Cc3cccc(F)c3)c3cccc1c23 [BC20315]	+ (“+” >25% increase in NMNAT2 luciferase activity at >25 μM.)
O=C(NCc1cccc(F)c1)C1CCc2c(c3ccccc3n2Cc2ccncc2)C1 (stereo not drawn) [BC20316]	+ (“+” >25% increase in NMNAT2 luciferase activity at >25 μM.)
O=C(NCc1cccnc1)C1CCc2c(c3ccccc3n2Cc2ccncc2)C1 (stereo not drawn) [BC20317]	+ (“+” >25% increase in NMNAT2 luciferase activity at >25 μM.)
O=C1CC(c2cn(Cc3cccc(F)c3)c3ccccc23)CCN1Cc1ccccc1F (stereo not drawn) [BC20318]	+ (“+” >25% increase in NMNAT2 luciferase activity at >25 μM.)
O=C1CC(c2cn(Cc3cccc(F)c3)c3ccccc23)CCN1Cc1cccc(F)c1 (stereo not drawn) [BC20319]	+ (“+” >25% increase in NMNAT2 luciferase activity at >25 μM.)
Cc1ccccc1CN1CCC(c2cn(Cc3cccc(F)c3)c3ccccc23)CC1=O (stereo not drawn) [BC20320]	+ (“+” >25% increase in NMNAT2 luciferase activity at >25 μM.)
Cc1cccc(CN2CCC(c3cn(Cc4cccc(F)c4)c4ccccc34)CC2=O)c1 (stereo not drawn) [BC20321]	+ (“+” >25% increase in NMNAT2 luciferase activity at >25 μM.)
O=C1CC(c2cn(Cc3cccc(F)c3)c3ccccc23)CCN1Cc1ccncc1 (stereo not drawn) [BC20322]	++ (“++” >25% increase in NMNAT2 luciferase activity at >1 μM ≤25 μM.)
O=C(Cn1c2c(c3ccccc31)CN(C(=O)NCc1ccco1)CC2)NCc1ccco1 [BC20327]	+ (“+” >25% increase in NMNAT2 luciferase activity at >25 μM.)
O=C(Cn1c2c(c3ccccc31)CN(C(=O)NCC1CCCO1)CC2)NCc1ccco1 (stereo not drawn) [BC20328]	+ (“+” >25% increase in NMNAT2 luciferase activity at >25 μM.)
O=C(Cn1c2c(c3ccccc31)CN(C(=O)NCCc1ccccc1)CC2)NCc1ccco1 [BC20329]	+ (“+” >25% increase in NMNAT2 luciferase activity at >25 μM.)
COc1ccc(CNC(=O)N2CCc3c(c4ccccc4n3CC(=O)NCc3ccco3)C2)cc1 [BC20330]	++ (“++” >25% increase in NMNAT2 luciferase activity at >1 μM ≤25 μM.)
Cc1ccc(CNC(=O)N2CCc3c(c4ccccc4n3Cc3cccc(F)c3)C2)cc1 [BC20331]	+ (“+” >25% increase in NMNAT2 luciferase activity at >25 μM.)
COc1ccc(CNC(=O)N2CCc3c(c4ccccc4n3Cc3cccc(F)c3)C2)cc1 [BC20332]	++ (“++” >25% increase in NMNAT2 luciferase activity at >1 μM ≤25 μM.)
Fc1cccc(Cn2c3c(c4ccccc42)CNCC3)c1 [BC20333]	++ (“++” >25% increase in NMNAT2 luciferase activity at >1 μM ≤25 μM.)
O=C(NCc1cccc(F)c1)N1CCc2c(c3ccccc3n2Cc2ccncc2)C1 [BC20334]	+ (“+” >25% increase in NMNAT2 luciferase activity at >25 μM.)
O=C(NCCc1ccccc1)N1CCc2c(c3ccccc3n2Cc2ccncc2)C1 [BC20335]	+ (“+” >25% increase in NMNAT2 luciferase activity at >25 μM.)
Cc1cccc(NC(=O)N2CCc3c(c4ccccc4n3Cc3ccncc3)C2)c1C [BC20336]	+ (“+” >25% increase in NMNAT2 luciferase activity at >25 μM.)
Cc1ccc(CNC(=O)N2CCc3c(c4ccccc4n3Cc3ccncc3)C2)cc1 [BC20337]	+ (“+” >25% increase in NMNAT2 luciferase activity at >25 μM.)
COc1ccc(CNC(=O)N2CCc3c(c4ccccc4n3Cc3ccncc3)C2)cc1 [BC20338]	+ (“+” >25% increase in NMNAT2 luciferase activity at >25 μM.)

From patent US20220169632A1, “METHODS AND MATERIALS FOR INCREASING OR MAINTAINING NICOTINAMIDE MONONUCLEOTIDE ADENYLYL TRANSFERASE-2 (NMNAT2) POLYPEPTIDE LEVELS” (University of Pittsburgh - Of the Commonwealth System of …, priority 2019, published 2022)
